Measurements: US7851473B2, “Amide compound” (Takeda Pharmaceutical Company Limited, priority 2004, dated 2010)

Tested on: rat local cerebral ischemic model
Assay: Cerebroprotective effect in a rat cerebral ischemic model (middle cerebral artery occlusion)
Assay type: in vivo
Settings: SD rats, 120 minutes occlusion; intravenous, immediately after reperfusion and after 2, 4 and 6 hours; measured two days after ischemia; p<0.05
Experimental: The compound obtained in Example 1 as an FAAH inhibitory agent (hereinafter, referred to as Compound A) was administered intravenously to a rat local cerebral ischemic model, and the inhibitory effect of the compound on cerebral infarct volume was examined. For the cerebral ischemic model, 8 weeks-old male SD rats (CLEA Japan, Inc.) were used to generate a middle cerebral artery occlusion model (Kiyota, et al., Experimental Brain Research, 95, 388-396 (1993)). That is, under halothane anesthesia, a silicone-coated plug was inserted into the rat from the right common carotid artery to the origin of middle cerebral artery to induce occlusion for 120 minutes. Compound A of Example was intravenously administered immediately after reperfusion and after 2, 4 and 6 hours, respectively. Two days after the ischemia treatment, the rat brain was extracted, 2 mm-thick slices of anterior maxillary section were prepared therefrom, and the cerebral infarct volume was measured from their TTC-stained images by image analysis.

## O=C(Nc1noc2ccccc12)N1CCN(c2nc(-c3ccccc3)ns2)CC1 [Compound A]
  cerebral infarct volume compared with the solvent-administered group: significantly smaller
